In patent publication US7807704B2, “Bicyclic, nitrogen-containing compounds modulating CXCR4 and/or CCXCKR2” (Chemocentryx, Inc., priority 2006, dated 2010):

Each compound was assayed against T1, CXCR4 (Homo sapiens, UniProt P61073) (assay: chemotaxis assay or 125I SDF-1α binding assay for CXCR4). Details: first or only activity listed, read-out: CXCR4 activity (IC50 class).
T1 construct: all endogenously expressing CXCR4; endogenous in cells; host or cells: CEM-Nkr, CCRF-CEM, Jurkat, Molt-4; IL-2 stimulated human lymphocytes
Method: CEM-Nkr, CCRF-CEM (ATCC #CCL-119), Jurkat (ATCC #TIB-152), Molt-4 (ATCC# CRL-1582), cell lines, all endogenously expressing CXCR4, were used in compound screening and subsequent assays. These cell lines were cultured as a suspension in RPMI-1640 medium supplemented with 2 mM L-glutamine, 1.5 g/L sodium bicarbonate, 4.5 g/L glucose, 10 mM HEPES, 1 mM sodium pyruvate, and 10% FBS. Cells were grown under 5% CO2/95% air, 100% humidity at 37° C. and subcultured twice weekly at 1:6 (cells were cultured at a density range of 1×10^5 to 2×10^6 cells/mL) and harvested at 1×10^6 cells/mL. • b) Isolated Human IL-2 Stimulated Lymphocytes
Cells were centrifuged and resuspended in assay buffer (20 mM HEPES pH 7.1, 140 mM NaCl, 1 mM CaCl2, 5 mM MgCl2, and with 0.2% bovine serum albumin) to a concentration of 4×10^6 cells/mL for cell lines. Binding assays were set up as follows. […] Then 0.1 mL of ^125I labeled SDF-1α (obtained from Perkin Elmer Life Sciences, Boston, Mass.) diluted in assay buffer to a final concentration of ˜50 pM, yielding ˜30,000 cpm per well, was added, the plates sealed and incubated for approximately 3 hours at 4° C. on a shaker platform. Reactions were aspirated onto GF/B glass filters pre-soaked in 0.3% polyethyleneimine (PEI) solution, on a vacuum cell harvester (Packard Instruments; Meriden, Conn.). Scintillation fluid (40 μl; Microscint 20, Packard Instruments) was added to each well, the plates were sealed and radioactivity measured in a Topcount scintillation counter (Packard Instruments). Control wells containing either diluent only (for total counts) or excess SDF1 a (1 μg/mL, for non-specific binding) were used to calculate the percent of total inhibition for compound. The computer program Prism from GraphPad, Inc. (San Diego, Calif.) was used to calculate IC50 values. IC50 values are those concentrations required to reduce the binding of radiolabeled SDF-1α to the receptor by 50%. (For further descriptions of ligand binding and other functional assays, see Dairaghi, et al., J. Biol. Chem. 274:21569-21574 (1999), Penfold, et al., Proc. Natl. Acad. Sci. USA. 96:9839-9844 (1999), and Dairaghi, et al., J. Biol. Chem. 272:28206-28209 (1997)).
Chemotaxis assays were performed using 5 μm pore polycarbonate, polyvinylpyrrolidone-coated filters in 96-well chemotaxis chambers (Neuroprobe; Gaithersburg, Md.) using chemotaxis buffer (Hank's balanced salt solution (HBSS) and 1% FBS). CXCR4 ligand (i.e., SDF1a, R&D Systems; Minneapolis, Minn.) are use to evaluate compound mediated inhibition of CXCR4 mediated migration. Other chemokines (i.e., TECK; R&D Systems; Minneapolis, Minn.) are used as specificity controls. The lower chamber was loaded with 29 μl of chemokine (i.e., 0.1 nM SDF1a); the top chamber contained 50,000 Jurkat cells or IL-2 lymphocytes in 20 μl. The chambers were incubated 2 hours at 37° C., and the number of cells in the lower chamber quantified either by direct cell counts in five high powered fields per well or by the CyQuant assay (Molecular Probes), a fluorescent dye method that measures nucleic acid content and microscopic observation.
To evaluate small organic molecules that prevent the CXCR4 from binding ligand, an assay was employed that detected radioactive ligand (i.e, SDF-1) binding to cells expressing CXCR4 on the cell surface (for example, CEM-Nkr cells). For compounds that inhibited binding, whether competitive or not, fewer radioactive counts are observed when compared to uninhibited controls.
Equal numbers of cells were added to each well in the plate. The cells were then incubated with radiolabeled […]. Unbound ligand was removed by washing the cells, and bound ligand was determined by quantifying radioactive counts. Cells that were incubated without any organic compound gave total counts; non-specific binding was determined by incubating the cells with unlabeled ligand and labeled ligand. Percent inhibition was determined by the equation: […]

T1 sequence (P61073 whole entry): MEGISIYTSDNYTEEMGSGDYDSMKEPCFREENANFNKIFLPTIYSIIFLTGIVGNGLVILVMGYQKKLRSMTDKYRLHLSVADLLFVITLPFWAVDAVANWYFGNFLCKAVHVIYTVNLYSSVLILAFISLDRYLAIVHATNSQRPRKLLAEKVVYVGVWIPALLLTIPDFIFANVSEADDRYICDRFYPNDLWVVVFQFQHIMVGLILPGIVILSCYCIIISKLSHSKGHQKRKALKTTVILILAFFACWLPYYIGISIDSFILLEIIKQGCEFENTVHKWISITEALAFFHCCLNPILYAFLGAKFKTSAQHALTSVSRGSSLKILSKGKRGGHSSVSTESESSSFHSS

Row | Structure (SMILES) | IC50 [nM]
1 | CN(CCNC(=O)Cn1ncc2ccccc21)C1CCCCC1 [No 2] | > 10000
2 | CN(CCNC(=O)Cn1ncc2c1CCCC2)C1CCCCC1 [No 6] | > 10000
3 | CN(CCNC(=O)Cn1cnc2ncccc21)C1CCCCC1 [No 7] | 1000 to 10000
4 | CN(CCNC(=O)Cn1cc2ccccc2n1)C1CCCCC1 [No 10] | 1000 to 10000
5 | Cc1ccc(-c2ccc3ccn(CC(=O)NCCNC4CCOC4)c3c2)cc1 (centres unmarked) [No 13] | 1000 to 10000
6 | Cc1ccc(-c2ccc3ccn(CC(=O)NC(C)(C)CN4CCCC4)c3c2)cc1 [No 15] | 1000 to 10000
7 | Cc1ccc(-c2ccc3c(C4=CCCC=C4)nn(CC(=O)NCCN(C)C4CCCCC4)c3c2)cc1 [No 16] | 1000 to 10000
8 | CN(CCNC(=O)Cn1cnc2c1CCOC2)C1CCCCC1 [No 19] | > 10000
9 | CN(CCNC(=O)Cc1c[nH]c2ccccc12)C1CCCCC1 [No 20] | 1000 to 10000
10 | CN(CCNC(=O)Cn1nc(Cl)c2ccccc21)C1CCCCC1 [No 21] | 1000 to 10000
11 | Cc1ccccc1-c1ccc2ccn(CC(=O)NCCN(C)C3CCCCC3)c2c1 [No 30] | 1000 to 10000
12 | Cc1ccc(-c2ccc3ccn(CC(=O)NCCN4CCCCC4C)c3c2)cc1 (centres unmarked) [No 53] | < 1000
13 | Cc1ccc(-c2ccc3ccn(CC(=O)NCCN4CCCCCC4)c3c2)cc1 [No 54] | < 1000
14 | CCN(CCNC(=O)Cn1ccc2ccc(-c3ccc(C)cc3)cc21)C1CCCCC1 [No 55] | < 1000
15 | Cc1ccc(-c2ccc3ccn(CC(=O)NCCN4CCC(C)CC4)c3c2)cc1 [No 56] | < 1000
16 | CN(CCNC(=O)Cn1ccc2ccc(-c3ccc(C#N)cc3)cc21)C1CCCCC1 [No 57] | < 1000
17 | COC(=O)c1cc2ccc(-c3ccc(C)cc3)cc2n1CC(=O)NCCN(C)C1CCCCC1 [No 58] | < 1000
18 | Cc1ccc(-c2ccc3ccn(CC(=O)NC(C)CN4CCCC4)c3c2)cc1 (centres unmarked) [No 59] | < 1000
19 | Cc1ccc(-c2ccc3ncn(CC(=O)NCCN(C)C4CCCCC4)c3c2)cc1 [No 60] | < 1000
20 | Cc1ccc(-c2ccc3ccn(CC(=O)NCC(C)N4CCCC4)c3c2)cc1 (centres unmarked) [No 61] | < 1000
21 | CN(C)c1ccc(-c2ccc3ccn(CC(=O)NCCN(C)C4CCCCC4)c3c2)cc1 [No 62] | < 1000
22 | Cc1ccc(-c2ccc3ccn(CC(=O)NCCN4CCCC(C)(C)C4)c3c2)cc1 [No 63] | < 1000
23 | Cc1ccc(-c2ccc3ccn(CC(=O)NCCN4CC(C)CC(C)C4)c3c2)cc1 (centres unmarked) [No 64] | < 1000

Continued, values first:

Row | IC50 [nM] | Structure (SMILES)
24 | < 1000 | CN(CCCNC(=O)Cn1ccc2cccc(-c3ccc(F)cc3)c21)C1CCCCC1 [No 1]
25 | < 1000 | CC(C)c1ccc(-c2ccc3ccn(CC(=O)NCCN4CCCC5CCCCC54)c3c2)cc1 (centres unmarked) [No 3]
26 | < 1000 | O=C(Cn1ccc2cccc(-c3ccc(F)cc3)c21)NCCN1CCCC2CCCCC21 (centres unmarked) [No 4]
27 | < 1000 | CN(CCNC(=O)Cn1ccc2cccc([N+](=O)[O-])c21)C1CCCCC1 [No 8]
28 | < 1000 | Cc1ccc2c(c1)ncn2CC(=O)NCCN(C)C1CCCCC1 [No 9]
29 | < 1000 | Cc1ccc(-c2ccc3ccn(CC(=O)NCCN4CCCCC4)c3c2)cc1 [No 11]
30 | < 1000 | Cc1ccc(-c2ccc3oc(=O)n(CC(=O)NCCN(C)C4CCCCC4)c3c2)cc1 [No 12]
31 | < 1000 | Cc1ccc(-c2ccc3cc(C(=O)O)n(CC(=O)NCCN(C)C4CCCCC4)c3c2)cc1 [No 14]
32 | < 1000 | COc1cc(-c2ccc(C)cc2)cc2c1ccn2CC(=O)NCCN(C)C1CCCCC1 [No 17]
33 | < 1000 | CN(CCNC(=O)Cn1cnc2c(F)c(F)ccc21)C1CCCCC1 [No 18]
34 | < 1000 | CN(CCNC(=O)Cn1ccc2ccc(-c3ccccc3)cc21)C1CCCCC1 [No 22]
35 | < 1000 | CN(CCNC(=O)Cn1ccc2ccc(-c3ccc(C(F)(F)F)cc3)cc21)C1CCCCC1 [No 25]
36 | < 1000 | CN(CCNC(=O)Cn1ccc2ccc(-c3ccc(Cl)cc3)cc21)C1CCCCC1 [No 29]
37 | < 1000 | CN(CCNC(=O)Cn1ccc2ccc(-c3cnc4ccccc4c3)cc21)C1CCCCC1 [No 36]
38 | < 1000 | CN(CCNC(=O)Cn1ccc2ccc(-c3cc4ccccc4o3)cc21)C1CCCCC1 [No 37]
39 | < 1000 | CCc1ccc(-c2ccc3ccn(CC(=O)NCCN(C)C4CCCCC4)c3c2)cc1 [No 38]
40 | < 1000 | Cc1cccc(-c2ccc3ccn(CC(=O)NCCN(C)C4CCCCC4)c3c2)c1 [No 39]
41 | < 1000 | CN(CCNC(=O)Cn1ccc2ccc(-c3ccncc3)cc21)C1CCCCC1 [No 40]
42 | < 1000 | Cc1ccc(-c2ccc3c(ccn3CC(=O)NCCN(C)C3CCCCC3)c2)cc1 [No 41]
43 | < 1000 | CN(CCNC(=O)Cn1ccc2cc(-c3ccc(F)cc3)ccc21)C1CCCCC1 [No 42]
44 | < 1000 | Cc1ccc(-c2cccc3c2ccn3CC(=O)NCCN(C)C2CCCCC2)cc1 [No 43]
45 | < 1000 | Cc1ccc(-c2ccc3ccn(CC(=O)NCCN4CCC[C@@H]5CCCC[C@H]54)c3c2)cc1 [No 44]
46 | < 1000 | C=Cc1ccc(-c2ccc3ccn(CC(=O)NCCN(C)C4CCCCC4)c3c2)cc1 [No 45]
47 | < 1000 | Cc1ccc(-c2ccc3ccn(CC(=O)NCCN(C)C4CCCCC4)c3c2)cc1C [No 46]
48 | < 1000 | Cc1ccc(-c2ccc3ccn(CC(=O)NCCN(C)C4CCCCC4)c3c2)c(F)c1 [No 47]
49 | < 1000 | Cc1ccc(-c2ccc3ccn(CC(=O)NCCN(C)C4CCCCC4)c3c2)cc1F [No 48]
50 | < 1000 | Cc1ccc(-c2ccc3cnn(CC(=O)NCCN(C)C4CCCCC4)c3c2)cc1 [No 49]
51 | < 1000 | CN(CCNC(=O)Cn1ccc2ccc(-c3ccc(C(N)=O)cc3)cc21)C1CCCCC1 [No 50]
52 | < 1000 | Cc1ccc(-c2ccc3ccn(CC(=O)NCCN(C)C4CCCC4)c3c2)cc1 [No 51]
53 | < 1000 | Cc1ccc(-c2ccc3ccn(CC(=O)NCCN4CCCC4)c3c2)cc1 [No 52]
